Series [1] is described as follows: The drug is tested on Z-030 corresponding to mouse gut metagenome with ENA study accession number: PRJEB37062 and ENA sample accession number: ERS12561829 for biotransformation under anaerobic condition. The drug concentrations were measured over 9 timepoints collected between 0 and 24 hours of incubation by liquid-chromatography-coupled mass spectrometry (LC–MS). Particulars: 2 µM.

Series [2] in a line: The drug is tested on Z-027 corresponding to metagenome with ENA study accession number: PRJEB37062 and ENA sample accession number: ERS12561826 for biotransformation under anaerobic condition. The drug concentrations were measured over 9 timepoints collected between 0 and 24 hours of incubation by liquid-chromatography-coupled mass spectrometry (LC–MS). Particulars: 2 µM.
Series [3] is described as follows: The drug is tested on Z-020 corresponding to rabbit gut metagenome with ENA study accession number: PRJEB37062 and ENA sample accession number: ERS12561819 for biotransformation under anaerobic condition. The drug concentrations were measured over 9 timepoints collected between 0 and 24 hours of incubation by liquid-chromatography-coupled mass spectrometry (LC–MS). To be noted: 2 µM.

The nature of series [4]: The drug is tested on Z-019 corresponding to rat gut metagenome with ENA study accession number: PRJEB37062 and ENA sample accession number: ERS12561818 for biotransformation under anaerobic condition. The drug concentrations were measured over 9 timepoints collected between 0 and 24 hours of incubation by liquid-chromatography-coupled mass spectrometry (LC–MS). To be noted: 2 µM.

Series [5] in a line: The drug is tested on Z-007 corresponding to rat gut metagenome with ENA study accession number: PRJEB37062 and ENA sample accession number: ERS12561807 for biotransformation under anaerobic condition. The drug concentrations were measured over 9 timepoints collected between 0 and 24 hours of incubation by liquid-chromatography-coupled mass spectrometry (LC–MS). Particulars: 2 µM.

Series [6] is described as follows: The drug is tested on Z-005 corresponding to metagenome with ENA study accession number: PRJEB37062 and ENA sample accession number: ERS12561805 for biotransformation under anaerobic condition. The drug concentrations were measured over 9 timepoints collected between 0 and 24 hours of incubation by liquid-chromatography-coupled mass spectrometry (LC–MS). Particulars: 2 µM.

The nature of series [7]: The drug is tested on Z-002 corresponding to rabbit gut metagenome with ENA study accession number: PRJEB37062 and ENA sample accession number: ERS12561802 for biotransformation under anaerobic condition. The drug concentrations were measured over 9 timepoints collected between 0 and 24 hours of incubation by liquid-chromatography-coupled mass spectrometry (LC–MS). Particulars: 2 µM.

The nature of series [8]: The drug is tested on Z-001 corresponding to mouse gut metagenome with ENA study accession number: PRJEB37062 and ENA sample accession number: ERS12561801 for biotransformation under anaerobic condition. The drug concentrations were measured over 9 timepoints collected between 0 and 24 hours of incubation by liquid-chromatography-coupled mass spectrometry (LC–MS). Particulars: 2 µM.

A short description of series [9]: The drug is tested on WLS-098 corresponding to human gut metagenome with ENA study accession number: PRJEB37062 and ENA sample accession number: ERS12561754 for biotransformation under anaerobic condition. The drug concentrations were measured over 9 timepoints collected between 0 and 24 hours of incubation by liquid-chromatography-coupled mass spectrometry (LC–MS). Particulars: 2 µM.

Series [10] is described as follows: The drug is tested on WLS-073 corresponding to human gut metagenome with ENA study accession number: PRJEB37062 and ENA sample accession number: ERS12561749 for biotransformation under anaerobic condition. The drug concentrations were measured over 9 timepoints collected between 0 and 24 hours of incubation by liquid-chromatography-coupled mass spectrometry (LC–MS). To be noted: 2 µM.

Series [11] in a line: The drug is tested on WLS-069 corresponding to human gut metagenome with ENA study accession number: PRJEB37062 and ENA sample accession number: ERS12561748 for biotransformation under anaerobic condition. The drug concentrations were measured over 9 timepoints collected between 0 and 24 hours of incubation by liquid-chromatography-coupled mass spectrometry (LC–MS). To be noted: 2 µM.

Series [12] in a line: The drug is tested on WLS-007 corresponding to human gut metagenome with ENA study accession number: PRJEB37062 and ENA sample accession number: ERS12561742 for biotransformation under anaerobic condition. The drug concentrations were measured over 9 timepoints collected between 0 and 24 hours of incubation by liquid-chromatography-coupled mass spectrometry (LC–MS). Particulars: 2 µM.

The conditions of series [13]: human gut metagenome, 24 h, 2 µM.
For series [14] the following is noted: human gut metagenome, 24 h, 2 µM. This is another data set of the same source.
For series [15] the following is noted: human gut metagenome, 24 h, 2 µM. The source holds these as a separate data set.
The conditions of series [16]: human gut metagenome, 24 h, 2 µM. This is another data set of the same source.
The conditions of series [17]: human gut metagenome, 24 h, 2 µM. The source holds these as a separate data set.
For series [18] the following is noted: human gut metagenome, 24 h, 2 µM. The source holds these as a separate data set.
The conditions of series [19]: human gut metagenome, 24 h, 2 µM. The source holds these as a separate data set.
The conditions of series [20]: human gut metagenome, 24 h, 2 µM. This is another data set of the same source.

Consider five molecules from ChEMBL document CHEMBL5724914, “Linking interpersonal differences in gut microbiota composition and drug biotransformation activity” (2024).
Note: call rule not given here.

As to `CN1CCOC(c2ccccc2)c2ccccc2C1` (stereo not given) [NEFOPAM], the “Bacterial Biotransformation” value in series [1], in [2], in [3], in [4], in series [5] and in series [6] was “Compound NOT metabolized” in each case. For the same molecule, the “Bacterial Biotransformation” value is recorded as “Compound NOT metabolized” in [7]; “Compound NOT metabolized” in series [8]; “Compound metabolized” in series [9]; “Compound NOT metabolized” in series [10]; “Compound NOT metabolized” in [11]; “Compound metabolized” in series [12]. The “Bacterial Biotransformation” value is on record as “Compound NOT metabolized” in series [13]; “Compound NOT metabolized” in series [14]; “Compound metabolized” in series [15]; “Compound NOT metabolized” in series [16]; “Compound NOT metabolized” in [17]; “Compound metabolized” in [18]. Moreover, the “Bacterial Biotransformation” value was “Compound NOT metabolized” in series [19] and “Compound metabolized” in [20].

As for `Cc1ccnc2c1NC(=O)c1cccnc1N2C1CC1` [NEVIRAPINE], the “Bacterial Biotransformation” value in series [1], in series [2], in series [3], in series [4], in [5] and in [6] was “Compound NOT metabolized” throughout. For the same molecule, the “Bacterial Biotransformation” value is reported as “Compound metabolized” in series [7]; “Compound NOT metabolized” in [8]; “Compound metabolized” in [9]; “Compound NOT metabolized” in series [10]; “Compound NOT metabolized” in series [11]; “Compound metabolized” in [12]. Besides, the “Bacterial Biotransformation” value is given as “Compound NOT metabolized” in series [13]; “Compound NOT metabolized” in series [14]; “Compound metabolized” in series [15]; “Compound metabolized” in [16]; “Compound NOT metabolized” in [17]; “Compound metabolized” in series [18]. Besides, the “Bacterial Biotransformation” value is listed as “Compound NOT metabolized” in [19] and “Compound metabolized” in series [20].

For the molecule `CO[C@]12C[C@@H](COC(=O)c3cncc(Br)c3)CN(C)[C@@H]1Cc1cn(C)c3cccc2c13` [NICERGOLINE], the “Bacterial Biotransformation” value in [1] was “Compound NOT metabolized”; in series [2], “Compound metabolized”; in series [3], “Compound NOT metabolized”; in series [4], “Compound NOT metabolized”; in series [5] it was “Compound NOT metabolized”; in [6] it was “Compound metabolized”. The “Bacterial Biotransformation” value in series [7] was “Compound metabolized”; in series [8], “Compound metabolized”; in [9], “Compound metabolized”; in series [10] it was “Compound metabolized”; in series [11], “Compound NOT metabolized”; in [12], “Compound NOT metabolized”. Also, the “Bacterial Biotransformation” value is on record as “Compound NOT metabolized” in series [13]; “Compound NOT metabolized” in series [14]; “Compound NOT metabolized” in series [15]; “Compound NOT metabolized” in [16]; “Compound NOT metabolized” in series [17]; “Compound metabolized” in series [18]. The “Bacterial Biotransformation” value in series [19] and in [20] was “Compound NOT metabolized” each time.

With `COc1ccc2c(c1OC)C(=O)O[C@@H]2[C@H]1c2c(cc3c(c2OC)OCO3)CCN1C` [NOSCAPINE], the “Bacterial Biotransformation” value was “Compound NOT metabolized” in [1]; “Compound NOT metabolized” in [2]; “Compound metabolized” in series [3]; “Compound NOT metabolized” in [4]; “Compound NOT metabolized” in series [5]; “Compound metabolized” in series [6]. Besides, the “Bacterial Biotransformation” value in series [7] is “Compound metabolized”; in [8], “Compound metabolized”; in series [9], “Compound metabolized”; in [10] it was “Compound metabolized”; in series [11] it was “Compound metabolized”; in series [12] it was “Compound NOT metabolized”. The “Bacterial Biotransformation” value in series [13] is listed as “Compound metabolized”; in series [14], “Compound NOT metabolized”; in series [15], “Compound NOT metabolized”; in [16] it was “Compound metabolized”; in series [17], “Compound metabolized”; in series [18], “Compound metabolized”. The “Bacterial Biotransformation” value in series [19] and in [20] was “Compound NOT metabolized” in each case.

As for `CCCc1nc(C(C)(C)O)c(C(=O)OCc2oc(=O)oc2C)n1Cc1ccc(-c2ccccc2-c2nnn[nH]2)cc1` [OLMESARTAN MEDOXOMIL], the “Bacterial Biotransformation” value is given as “Compound NOT metabolized” in series [1]; “Compound NOT metabolized” in [2]; “Compound metabolized” in [3]; “Compound NOT metabolized” in series [4]; “Compound metabolized” in series [5]; “Compound metabolized” in series [6]. For the same molecule, the “Bacterial Biotransformation” value was “Compound metabolized” in series [7]; “Compound metabolized” in [8]; “Compound NOT metabolized” in series [9]; “Compound metabolized” in series [10]; “Compound metabolized” in [11]; “Compound metabolized” in series [12]. Also, the “Bacterial Biotransformation” value in series [13] is given as “Compound NOT metabolized”; in series [14] it was “Compound metabolized”; in series [15], “Compound metabolized”; in series [16], “Compound NOT metabolized”; in series [17], “Compound metabolized”; in series [18], “Compound metabolized”. Further, the “Bacterial Biotransformation” value in [19] is on record as “Compound NOT metabolized”; in [20] it was “Compound metabolized”.
